According to patent US20190111040A1, “IN VIVO AMELIORATION OF ENDOGENOUS ANTI-TUMOR AUTOANTIBODIES TARGETING SURFACE TUMOR ANTIGENS VIA LOW-DOSE P4N” (THE JOHNS HOPKINS UNIVERSITY, priority 2016, published 2019):
Counter-ions that a name gives are not always drawn.

Experiments:
mouse splenocytes = test: Effect of P4N on B cell lineage in mouse splenocytes in vitro; format: cell-based
Protocol: The effect of P4N on changes in B cell lineage in vitro. Single cell suspensions of mouse splenocytes were obtained by grinding the spleens from healthy mice. The suspended splenocytes were treated with or without 0.1 or 0.2 μM of P4N for 48 h, and the percentage of naïve B cells, activated B cells, B1 cells or Breg cells were measured after staining with the following fluorochrome conjugates using flow cytometry (BD Biosciences): anti-CD19-FITC, anti-CD-23-APC, anti-CD-38-APC, anti-CD5-PE or anti-CD1d-Alexa 647 (BioLegend, San Diego, Calif.). The cell types were defined as follows: naïve B cells (CD19+CD23+), activated B cells (CD19+CD38+), B1 cells (CD19+CD5+) and Breg cells (CD19+CD5+CD1d+). The indices of different types of B cell proliferation were calculated as follows: (the number of splenocytes×the percentage of each B cell population in treated splenocytes)/(the number of splenocytes×the percentage of each B cell population in untreated splenocytes).

PBMCs = test: Cytokine and chemokine profile of P4N treated PBMC, Bio-Plex; format: cell-based, human; settings: 3 μM P4N
Protocol: PBMCs isolated from 7 healthy donors were treated with 3 μM of P4N for 48 h. Supernatants were collected and analyzed for human cytokines using the Bio-Plex assay. Shown are the changed results of the production of 27 human cytokines when PBMCs were treated with P4N in three independent experiments. The levels of IL-4, IL-5, IL-7, IL-9, Eotaxin and FGF were undetectable.
The effects of P4N on the profile of cytokine expression. PBMCs (2×10^6 cells/ml) from seven healthy individuals were seeded in each well of a 24-well microplate and treated with 3 μM of P4N for 24 h. Cell supernatants were collected for analysis of cytokine levels by a cytokine multiplex assay using the Bio-Plex Pro Human Cytokine Standard Group I 27-Plex, following the manufacturer's protocol (Bio-Rad, Hercules, Calif.). The change levels of cytokine were calculated as follows: Change level=(value of the P4N-treated cells)/(value of the untreated cells)×100%.

C[C@H](Cc1ccc(OCCN2CCCCC2)c(OCCN2CCCCC2)c1)[C@@H](C)Cc1ccc(OCCN2CCCCC2)c(OCCN2CCCCC2)c1 [P4N, meso-2,3-dimethyl-1,4-bis(3,4-[2-(piperidino)ethoxyphenyl])butane tetrakishydrochloride salt]
total B cell proliferation in mouse splenocytes (mouse splenocytes; 48 h): increased total B cell proliferation
number of activated B cells (mouse splenocytes; absence of antigen stimulation): had no effect
levels of pro-inflammatory cytokines (TNF-α, IL-1P and IL-6) and chemokines (IL-8, IP-10, MIP-1α, MIP-1β and RANTES) (PBMCs): significantly increased
levels of IL-4, IL-5, IL-7, IL-9, Eotaxin and FGF (PBMCs; 48 h): undetectable
